From ChEMBL document CHEMBL4699582, “Discovery of OATD-01, a First-in-Class Chitinase Inhibitor as Potential New Therapeutics for Idiopathic Pulmonary Fibrosis” (J Med Chem, 2020)

Columns and labels:
[1] = target: Voltage-gated inwardly rectifying potassium channel KCNH2 (Homo sapiens, UniProt Q12809); test: Inhibition of tracer red binding to human ERG expressed in HEK293 cell membranes measured after 2 to 6 hrs by fluorescence polarization assay
[2] = target: Acidic mammalian chitinase (Homo sapiens, UniProt Q9BZP6); test: Inhibition of full-length C-terminal his-tagged human AMCase expressed in CHO-K1 cells assessed as reduction in chitinolytic activity using 4-methylumbelliferyl-beta-D-N,N-diacetylchitobioside hydrate as substrate after 60 mins by fluorometric assay; format: cell-based
Acidic mammalian chitinase (Homo sapiens, UniProt Q9BZP6), sequence (Q9BZP6 whole entry): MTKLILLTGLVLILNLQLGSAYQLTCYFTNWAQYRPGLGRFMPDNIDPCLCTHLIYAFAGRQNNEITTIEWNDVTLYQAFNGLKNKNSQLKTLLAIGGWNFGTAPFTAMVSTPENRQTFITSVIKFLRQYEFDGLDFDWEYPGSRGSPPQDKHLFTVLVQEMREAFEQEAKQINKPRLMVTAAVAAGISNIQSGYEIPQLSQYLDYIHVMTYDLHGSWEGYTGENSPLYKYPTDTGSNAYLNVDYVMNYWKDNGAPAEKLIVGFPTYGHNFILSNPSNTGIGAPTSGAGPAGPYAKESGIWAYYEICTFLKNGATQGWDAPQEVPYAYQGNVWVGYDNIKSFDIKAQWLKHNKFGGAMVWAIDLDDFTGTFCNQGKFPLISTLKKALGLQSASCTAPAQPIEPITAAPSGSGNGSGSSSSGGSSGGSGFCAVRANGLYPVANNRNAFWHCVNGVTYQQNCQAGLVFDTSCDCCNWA

[3] = target: Acidic mammalian chitinase (Mus musculus, UniProt Q91XA9); test: Inhibition of full-length C-terminal his-tagged mouse AMCase expressed in expressed in CHO-K1 cells assessed as reduction in chitinolytic activity using 4-methylumbelliferyl-beta-D-N,N'-diacetylchitobioside hydrate as substrate after 60 mins by fluorometric assay; format: cell-based
Acidic mammalian chitinase (Mus musculus, UniProt Q91XA9), sequence (Q91XA9 whole entry): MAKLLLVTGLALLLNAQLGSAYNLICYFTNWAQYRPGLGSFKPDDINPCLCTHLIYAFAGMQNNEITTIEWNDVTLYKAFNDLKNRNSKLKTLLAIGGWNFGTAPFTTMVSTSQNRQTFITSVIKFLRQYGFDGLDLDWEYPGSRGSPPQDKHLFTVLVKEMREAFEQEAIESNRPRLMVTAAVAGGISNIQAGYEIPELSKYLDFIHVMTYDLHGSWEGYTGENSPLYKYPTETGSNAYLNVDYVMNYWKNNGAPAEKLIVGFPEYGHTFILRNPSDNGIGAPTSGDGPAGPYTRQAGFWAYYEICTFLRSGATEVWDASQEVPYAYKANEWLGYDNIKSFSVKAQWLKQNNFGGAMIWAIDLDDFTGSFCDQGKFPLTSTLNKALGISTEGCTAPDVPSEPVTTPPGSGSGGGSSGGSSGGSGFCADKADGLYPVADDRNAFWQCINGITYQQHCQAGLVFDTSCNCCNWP

Chitotriosidase-1 [4] = target: Chitotriosidase-1 (Mus musculus, UniProt Q9D7Q1); test: biochemical
Chitotriosidase-1 (Mus musculus, UniProt Q9D7Q1), sequence (Q9D7Q1 whole entry): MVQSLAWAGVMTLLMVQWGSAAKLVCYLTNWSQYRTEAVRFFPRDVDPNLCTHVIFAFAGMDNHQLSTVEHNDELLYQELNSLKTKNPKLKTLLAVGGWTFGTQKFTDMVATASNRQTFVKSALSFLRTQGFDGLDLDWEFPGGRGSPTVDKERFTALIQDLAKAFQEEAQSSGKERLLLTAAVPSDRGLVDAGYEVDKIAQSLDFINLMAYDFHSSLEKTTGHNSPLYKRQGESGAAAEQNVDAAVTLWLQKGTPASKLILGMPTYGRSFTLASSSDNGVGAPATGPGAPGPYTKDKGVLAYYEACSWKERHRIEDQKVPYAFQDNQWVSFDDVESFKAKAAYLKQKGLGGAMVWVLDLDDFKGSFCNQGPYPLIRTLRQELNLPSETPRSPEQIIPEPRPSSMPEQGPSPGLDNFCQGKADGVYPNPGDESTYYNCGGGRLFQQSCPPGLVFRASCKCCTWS
Description: Inhibition of recombinant full-length C-terminal his-tagged mouse CHIT1 expressed in CHO-K1 cells assessed as reduction in chitinolytic activity using 4-methylumbelliferyl-beta-D-N,N',N"-triacetylchitotrioside as substrate after 60 mins by fluorometric assay

Chitotriosidase-1 [5] = target: Chitotriosidase-1 (Homo sapiens, UniProt Q13231); format: cell-based; conditions: hek293f
Chitotriosidase-1 (Homo sapiens, UniProt Q13231), sequence (Q13231 whole entry): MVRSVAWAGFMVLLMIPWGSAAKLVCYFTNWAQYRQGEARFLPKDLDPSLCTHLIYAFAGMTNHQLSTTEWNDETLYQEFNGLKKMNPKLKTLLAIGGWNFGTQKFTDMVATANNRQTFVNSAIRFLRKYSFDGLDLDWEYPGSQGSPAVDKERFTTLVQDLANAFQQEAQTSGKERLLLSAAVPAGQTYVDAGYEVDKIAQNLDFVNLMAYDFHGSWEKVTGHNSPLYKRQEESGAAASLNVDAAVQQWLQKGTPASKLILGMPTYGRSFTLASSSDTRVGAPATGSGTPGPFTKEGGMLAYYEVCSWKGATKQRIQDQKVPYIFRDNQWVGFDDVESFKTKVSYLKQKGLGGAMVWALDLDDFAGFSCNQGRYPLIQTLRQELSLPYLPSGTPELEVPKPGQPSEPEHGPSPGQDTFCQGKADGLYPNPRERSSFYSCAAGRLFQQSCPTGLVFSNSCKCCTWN

Voltage-gated inwardly rectifying potassium channel KCNH2, sequence (Q12809 whole entry): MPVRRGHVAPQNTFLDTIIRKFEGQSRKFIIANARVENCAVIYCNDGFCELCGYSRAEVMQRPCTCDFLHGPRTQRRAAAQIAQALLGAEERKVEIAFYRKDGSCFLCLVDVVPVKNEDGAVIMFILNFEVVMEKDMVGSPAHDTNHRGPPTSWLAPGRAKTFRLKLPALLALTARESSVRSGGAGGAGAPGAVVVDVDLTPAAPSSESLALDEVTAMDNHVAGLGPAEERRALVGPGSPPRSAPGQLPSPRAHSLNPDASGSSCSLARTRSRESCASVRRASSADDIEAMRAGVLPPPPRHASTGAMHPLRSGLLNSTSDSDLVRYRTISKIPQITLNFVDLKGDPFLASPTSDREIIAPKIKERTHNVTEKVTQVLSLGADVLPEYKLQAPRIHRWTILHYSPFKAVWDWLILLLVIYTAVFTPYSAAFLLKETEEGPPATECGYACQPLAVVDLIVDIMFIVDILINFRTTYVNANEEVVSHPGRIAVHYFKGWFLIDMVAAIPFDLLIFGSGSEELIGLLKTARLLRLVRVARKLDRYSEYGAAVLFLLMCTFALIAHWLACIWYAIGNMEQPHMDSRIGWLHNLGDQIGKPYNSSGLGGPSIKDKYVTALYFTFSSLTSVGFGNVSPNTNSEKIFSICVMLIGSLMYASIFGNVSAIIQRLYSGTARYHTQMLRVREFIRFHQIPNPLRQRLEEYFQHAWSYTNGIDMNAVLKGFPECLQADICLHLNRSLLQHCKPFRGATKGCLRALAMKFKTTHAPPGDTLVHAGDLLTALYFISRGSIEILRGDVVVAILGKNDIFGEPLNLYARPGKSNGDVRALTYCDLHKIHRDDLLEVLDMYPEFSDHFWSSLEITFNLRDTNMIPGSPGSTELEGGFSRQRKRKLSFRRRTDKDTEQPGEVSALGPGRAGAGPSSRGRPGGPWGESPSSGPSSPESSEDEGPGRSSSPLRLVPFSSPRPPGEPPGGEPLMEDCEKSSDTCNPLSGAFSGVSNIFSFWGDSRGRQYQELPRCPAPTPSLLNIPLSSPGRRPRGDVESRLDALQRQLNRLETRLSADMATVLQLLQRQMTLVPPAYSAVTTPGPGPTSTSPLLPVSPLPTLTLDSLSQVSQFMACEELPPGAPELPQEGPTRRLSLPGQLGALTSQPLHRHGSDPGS

CC(C)CN1C[C@H](Cc2ccc(Cl)cc2)N(C2CCN(c3n[nH]c(N)n3)CC2)C[C@@H]1C
IC50 [1]: 2.4 µM
IC50 [2]: 0.084 µM

CN1CCN(C2CCN(c3nnc(N)[nH]3)CC2)[C@@H](Cc2ccc(Cl)cc2)C1
IC50 ([1]; hek293): Not Active

Nc1nnc(N2CCC(N3Cc4ccccc4OC[C@@H]3Cc3ccc(Cl)cc3)CC2)[nH]1
IC50 [1]: 22 µM
IC50 [3]: 0.059 µM
IC50 (Chitotriosidase-1 [4]): 0.137 µM

C[C@@H]1CN(C2CCN(c3nnc(N)[nH]3)CC2)[C@@H](Cc2ccc(Cl)cc2)CO1
IC50 [3]: 1 µM
IC50 (Chitotriosidase-1 [4]): 7.2 µM

CNC(=O)[C@H]1CN(C2CCN(c3nc(N)n[nH]3)CC2)[C@@H](Cc2ccc(Cl)cc2)CO1
IC50 ([1]; hek293): Not Active
IC50 [3]: 0.0078 µM
IC50 (Chitotriosidase-1 [4]): 0.049 µM

COC[C@H]1CN(C2CCN(c3nc(N)n[nH]3)CC2)[C@@H](Cc2ccc(Cl)cc2)CO1
IC50 [1]: 100 µM
IC50 [3]: 0.0077 µM
IC50 (Chitotriosidase-1 [4]): 0.03 µM

CC(C)C[C@H]1CN(C2CCN(c3nnc(N)[nH]3)CC2)[C@@H](Cc2ccc(Cl)cc2)CO1
IC50 [1]: 8.5 µM
IC50 [3]: 0.001 µM
IC50 (Chitotriosidase-1 [4]): 0.015 µM

Nc1n[nH]c(N2CCC(N3CC(=O)NC[C@@H]3Cc3ccc(Cl)cc3)CC2)n1
IC50 [1]: 80 µM
IC50 [3]: 0.66 µM
IC50 (Chitotriosidase-1 [4]): 5.3 µM

Nc1n[nH]c(N2CCC(N3CCNC(=O)[C@@H]3Cc3ccc(Cl)cc3)CC2)n1
IC50 [3]: 22 µM
IC50 (Chitotriosidase-1 [4]): 27 µM
IC50 (Chitotriosidase-1 [5]): Not Active

CC(C)(O)[C@H]1CN(C2CCN(c3nc(N)n[nH]3)CC2)[C@@H](Cc2ccc(Cl)cc2)CO1
IC50 ([1]; hek293): Not Active
IC50 [3]: 0.0055 µM
IC50 (Chitotriosidase-1 [4]): 0.029 µM

CC[C@H]1CN(C2CCN(c3nc(N)n[nH]3)CC2)[C@@H](Cc2ccc(Cl)cc2)CO1
IC50 [1]: 33 µM
IC50 [3]: 0.0013 µM

Nc1nnc(N2CCC(N3C[C@H](CO)OC[C@@H]3Cc3ccc(Cl)cc3)CC2)[nH]1
IC50 [1]: 72 µM
IC50 [3]: 0.0067 µM
IC50 (Chitotriosidase-1 [4]): 0.025 µM

Nc1nnc(N2CCC(N3CCS(=O)(=O)C[C@@H]3Cc3ccc(Cl)cc3)CC2)[nH]1
IC50 [3]: 3 µM
IC50 (Chitotriosidase-1 [4]): 1.7 µM

CC(C)[C@H]1CN(C2CCN(c3nc(N)n[nH]3)CC2)[C@@H](Cc2ccc(Cl)cc2)CO1
IC50 [1]: 34 µM
IC50 [3]: 0.0021 µM
IC50 (Chitotriosidase-1 [4]): 0.019 µM
